# Source: paper PMC11053447, “Human ABC and SLC Transporters: The Culprit Responsible for Unspecific PSMA-617 Uptake?” (Pharmaceuticals, 2024)
# Key:
# MRP4 = molecular target: T1, MRP4 (Homo sapiens, UniProt O15439); assay: Vesicular transport inhibition assay (ABC), MRP4-mediated DHEAS transport, HEK293 membrane vesicles; format: in vitro ADME; settings: positive control inhibitor 150.0 µM, DHEAS probe
# T1 construct: host or cells: HEK293 (membrane vesicles)
# T1 sequence (O15439 1-1325): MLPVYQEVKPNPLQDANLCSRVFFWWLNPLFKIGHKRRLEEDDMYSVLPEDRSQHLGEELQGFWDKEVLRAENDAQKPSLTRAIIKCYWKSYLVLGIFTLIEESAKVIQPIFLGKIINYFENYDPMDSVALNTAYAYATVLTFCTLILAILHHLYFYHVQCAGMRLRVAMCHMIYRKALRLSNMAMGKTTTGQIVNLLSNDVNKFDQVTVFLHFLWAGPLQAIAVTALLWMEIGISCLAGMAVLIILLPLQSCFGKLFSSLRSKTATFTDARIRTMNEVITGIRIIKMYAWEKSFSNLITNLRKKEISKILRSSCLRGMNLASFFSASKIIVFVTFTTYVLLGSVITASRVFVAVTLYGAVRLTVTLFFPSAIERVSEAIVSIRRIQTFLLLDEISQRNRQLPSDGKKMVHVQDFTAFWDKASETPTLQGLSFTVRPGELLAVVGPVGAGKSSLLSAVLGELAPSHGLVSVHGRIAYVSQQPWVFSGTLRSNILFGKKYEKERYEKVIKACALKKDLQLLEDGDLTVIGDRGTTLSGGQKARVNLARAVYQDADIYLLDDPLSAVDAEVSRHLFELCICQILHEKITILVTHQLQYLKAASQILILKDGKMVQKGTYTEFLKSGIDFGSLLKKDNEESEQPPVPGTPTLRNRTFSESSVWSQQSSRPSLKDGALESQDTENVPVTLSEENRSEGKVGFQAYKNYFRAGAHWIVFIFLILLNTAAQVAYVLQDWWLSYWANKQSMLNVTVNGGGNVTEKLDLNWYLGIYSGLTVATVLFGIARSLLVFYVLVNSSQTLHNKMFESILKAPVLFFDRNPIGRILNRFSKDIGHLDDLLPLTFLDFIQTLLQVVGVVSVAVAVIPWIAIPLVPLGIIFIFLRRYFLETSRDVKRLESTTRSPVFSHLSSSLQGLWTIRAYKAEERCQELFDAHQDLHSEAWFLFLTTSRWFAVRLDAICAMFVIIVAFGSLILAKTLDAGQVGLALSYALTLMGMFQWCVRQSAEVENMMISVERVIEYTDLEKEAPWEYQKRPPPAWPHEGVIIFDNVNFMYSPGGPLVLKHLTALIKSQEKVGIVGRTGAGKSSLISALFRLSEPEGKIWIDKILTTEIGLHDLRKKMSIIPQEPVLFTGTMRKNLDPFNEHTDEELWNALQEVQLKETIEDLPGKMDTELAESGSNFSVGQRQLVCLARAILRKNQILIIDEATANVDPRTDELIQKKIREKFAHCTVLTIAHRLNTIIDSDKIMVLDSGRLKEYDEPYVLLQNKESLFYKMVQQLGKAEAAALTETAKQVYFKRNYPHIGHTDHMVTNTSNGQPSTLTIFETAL
# [1] = parameters: method as in PMID 37191680; settings: PSMA-null mice; cited from earlier work
# MDR1 = MDR1 (Homo sapiens, UniProt P08183)
# Method: The incubations were carried out in the presence of 4 mM ATP or AMP to distinguish between transporter-mediated uptake and passive diffusion into the vesicles. […] Afterwards, the reaction mixtures were pre-incubated for 15 min at 37 °C for MRP1 or at 32 °C for BCRP, MDR1 and MRP4, respectively. The transporter assay was initiated through the addition of 25 μL of pre-warmed 12 mM MgATP (or 12 mM AMP in assay buffer as a background control). The reactions were quenched through the addition of 200 μL of ice-cold washing buffer and immediate filtration via glass fiber filters mounted onto a 96-well plate (filter plate). The filters were washed (5 × 200 μL of ice-cold washing buffer) and dried, and the amount of probe substrate inside the filtered vesicles was determined using LSC. The experiments were conducted in triplicate.
# Calculation of ATP-dependent transport and inhibition for vesicular transport inhibition
# For all wells the amount of the translocated probe substrate was determined in counts per minute (cpm).
# ATP-dependent transport (pmol/mg protein/min) is calculated for each concentration using the following
# 𝐴𝑐𝑐𝐴𝑇𝑃 ∙ 𝑉 ∙ 𝐶𝐶 𝐴𝑐𝑐𝐴𝑀𝑃 ∙𝑉 ∙𝐶𝐶
# 𝐴𝑇𝑃 − 𝑑𝑒𝑝𝑒𝑛𝑑𝑒𝑛𝑡 𝑎𝑐𝑐𝑢𝑚𝑢𝑙𝑎𝑡𝑖𝑜𝑛 = ( 𝑇𝐶𝑃𝑀 𝑠𝑢𝑏) − ( 𝑇𝐶𝑃𝑀 𝑠𝑢𝑏)
# • AccATP: probe substrate accumulation with ATP (cpm)
# • AccAMP: probe substrate accumulation with AMP (cpm)
# • Tcpm: cpm in dosing solution V: volume per well (µL)
# • CCsub: probe substrate concentration (µM)
# • Prot: total protein per well (mg)
# • t: incubation time (min)
# Relative ATP-dependent transport (%) values were calculated using the following equation:
# 𝑅𝑒𝑙𝑎𝑡𝑖𝑣𝑒 𝐴𝑇𝑃 − 𝑑𝑒𝑝𝑒𝑛𝑑𝑒𝑛𝑡 𝑡𝑟𝑎𝑛𝑠𝑝𝑜𝑟𝑡 (%) = 𝐴 − 𝐵 ∙ 100
# • A: amount of translocated substrate in the presence of test substance (TS) and ATP
# • B: amount of translocated substrate in the presence of test substance (TS) and AMP
# • C: amount of translocated substrate in the presence of solvent and ATP
# • D: amount of translocated substrate in the presence of solvent and AMP
# Relative inhibition (%) is calculated by setting probe substrate transport in the absence of test substance as
# 𝑅𝑒𝑙𝑎𝑡𝑖𝑣𝑒 𝑖𝑛ℎ𝑖𝑏𝑖𝑡𝑖𝑜𝑛 (%) = 𝐴𝑐𝑐𝑆𝑝𝑒𝑐𝑖𝑓𝑖𝑐,𝑥 ∙100
# • Accspecific,x: transporter specific accumulation for a given sample (pmol/mg/min)
# • Accspecific,vehicle: transporter specific accumulation for a solvent control (pmol/mg/min)
# Data are expressed as mean (n=3)
# N-methyl quinidine (NMQ) measured in the vesicular transport inhibition assay.
# Nominal ATP Relative ATP Relative
# Compound concentration [µM] dependent transport dependent transport inhibition [%]
# [pmol/mg/min] [% of control]
# Data are expressed as mean (n=3) ± SD.
# [2] = parameters: method as in PMID 29651569; settings: within the first 24 h post injection; cited from earlier work
# [3] = cited from earlier work
# Chain of MDR1 (P08183 whole entry): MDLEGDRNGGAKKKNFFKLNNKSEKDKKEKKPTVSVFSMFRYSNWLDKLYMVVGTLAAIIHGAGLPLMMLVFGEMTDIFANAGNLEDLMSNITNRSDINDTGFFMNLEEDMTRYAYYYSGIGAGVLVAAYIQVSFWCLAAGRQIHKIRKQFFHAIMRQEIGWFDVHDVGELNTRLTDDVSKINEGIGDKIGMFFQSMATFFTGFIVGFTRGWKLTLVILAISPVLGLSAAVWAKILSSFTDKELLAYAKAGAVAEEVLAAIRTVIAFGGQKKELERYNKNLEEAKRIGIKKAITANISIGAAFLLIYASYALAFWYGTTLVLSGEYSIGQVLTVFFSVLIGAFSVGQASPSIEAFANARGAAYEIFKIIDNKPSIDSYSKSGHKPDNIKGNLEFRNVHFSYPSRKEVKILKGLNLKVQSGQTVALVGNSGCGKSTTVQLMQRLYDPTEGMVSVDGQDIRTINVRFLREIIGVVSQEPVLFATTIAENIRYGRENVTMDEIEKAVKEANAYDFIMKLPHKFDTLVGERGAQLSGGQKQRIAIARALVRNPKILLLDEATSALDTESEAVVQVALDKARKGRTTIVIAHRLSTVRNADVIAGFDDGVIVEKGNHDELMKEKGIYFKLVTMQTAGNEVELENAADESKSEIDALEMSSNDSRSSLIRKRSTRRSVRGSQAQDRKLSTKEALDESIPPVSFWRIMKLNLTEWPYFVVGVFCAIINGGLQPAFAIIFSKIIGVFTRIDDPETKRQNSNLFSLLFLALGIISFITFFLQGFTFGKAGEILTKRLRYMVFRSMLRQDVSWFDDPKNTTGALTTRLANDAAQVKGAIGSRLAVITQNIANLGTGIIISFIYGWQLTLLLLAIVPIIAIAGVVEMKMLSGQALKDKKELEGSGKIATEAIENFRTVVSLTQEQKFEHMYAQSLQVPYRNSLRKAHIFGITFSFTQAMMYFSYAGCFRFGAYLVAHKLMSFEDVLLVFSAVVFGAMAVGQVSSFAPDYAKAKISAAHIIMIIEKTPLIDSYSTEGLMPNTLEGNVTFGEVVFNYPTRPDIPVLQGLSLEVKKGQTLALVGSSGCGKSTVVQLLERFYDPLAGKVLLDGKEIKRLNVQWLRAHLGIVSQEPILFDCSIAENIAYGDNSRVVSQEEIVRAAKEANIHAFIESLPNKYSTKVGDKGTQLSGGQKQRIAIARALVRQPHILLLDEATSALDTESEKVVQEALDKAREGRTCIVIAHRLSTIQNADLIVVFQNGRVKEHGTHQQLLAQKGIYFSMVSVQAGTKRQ
structure (smiles),measurement,setting,value
"CN(C)C(=O)CCSC(SCCC(=O)O)c1cccc(/C=C/c2ccc3ccc(Cl)cc3n2)c1 (stereo not drawn) [MK-571, reference compound]","inhibition at 1.5 min, 150 µM","MRP4; human, probe dehydroepiandrosterone sulfate (DHEAS), 0.5 µM, read-out: Relative inhibition",98%
same,ATP dependent transport,MRP4; mean (n=3) ± SD,256.00 ± 59.15 pmol/mg/min
same,Relative ATP dependent transport,MRP4; mean (n=3) ± SD,2.06 ± 0.48 % of control
O=C([O-])CN(CCN(CC(=O)[O-])Cc1cc(CCC(=O)NCCCCCC(=O)NCCCC[C@H](NC(=O)N[C@@H](CCC(=O)O)C(=O)O)C(=O)O)ccc1[O-])Cc1cc(CCC(=O)O)ccc1[O-].[68Ga+3].[OH3+] [[^68Ga]Ga-PSMA-11],Uptake by healthy kidneys and SGs,[1],greatly reduced uptake
"C/C=C/C[C@@H](C)C(=O)[C@H]1C(=O)N[C@@H](C(C)C)C(=O)N(C)CC(=O)N(C)[C@@H](CC(C)C)C(=O)N[C@@H](C(C)C)C(=O)N(C)[C@@H](CC(C)C)C(=O)N[C@@H](C)C(=O)N[C@H](C)C(=O)N(C)[C@@H](CC(C)C)C(=O)N(C)[C@@H](CC(C)C)C(=O)N(C)[C@@H](C(C)C)C(=O)N1C [Valspodar, reference compound]","inhibition at 1 min, 1 µM","MDR1; human, probe N-methyl quinidine (NMQ), 1.0 µM",96%
same,Relative ATP dependent transport,"MDR1; positive control inhibitor 1.00 µM, NMQ probe, mean (n=3) ± SD",4.28 ± 0.62 % of control
O=C([O-])CN1CCN(CC(=O)[O-])CCN(CC(=O)NCC2CCC(C(=O)NC(Cc3ccc4ccccc4c3)C(=O)NCCCCC(NC(=O)NC(CCC(=O)O)C(=O)O)C(=O)O)CC2)CCN(CC(=O)[O-])CC1.[177Lu+3] (stereo not drawn) [[^177Lu]Lu-PSMA-617],Excreted via the renal route in urine,[2],up to 70%
same,Accumulation in the kidneys,[3]; kidneys,0.5–0.6 Gy/GBq injected dose
same,Accumulation in the salivary glands,[3]; salivary glands (SGs),up to 1 Gy/GBq injected dose
